Data as given in article PMC11341359, “Assessing the immunogenicity risk of salmon calcitonin peptide impurities using in silico and in vitro methods” (Frontiers in Pharmacology, 2024).
Bridge positions count the residues as written; N and C are the ends. Ends that are not written are not given here.

Test system: human donor PBMCs
Assay: In vitro immunogenicity protocol (IVIP) naïve T-cell assay, IFNγ FluoroSpot
Format: cell-based
Settings: individual full-length peptides at 20 μg/mL, 14 days, then 48 h IFNγ FluoroSpot; 16 donors; positive: SFC > 50 per 10^6, SI ≥ 2, p < 0.05 vs medium
Description: To improve the sensitivity of the T-cell assays, fresh (not frozen) blood samples were obtained from human blood donors for the T-cell assays (internal observations). Specifically, PBMCs were isolated from leukocyte reduction filters obtained from the Rhode Island Blood Center (RIBC) in Providence, RI. To confirm the sufficient breadth of HLA coverage in the donor cohort, high-resolution (4-digit) class II HLA haplotyping of donors was performed at the Transplant Immunology Laboratory at Hartford Hospital in Hartford, CT, using the sequence-specific oligonucleotide method (SSP-PCR). […] supertype alleles were expressed by the donor PBMCs used in the assays reported here (HLA DRB1*0301, *0401, *0701, *1101, *1301, and *1501). The HLA identified for the cohort of subjects used in this study is representative of 81.81% of the HLA alleles expressed by the global population. Forty percent of the donors were female and 60% of the donors were male, and their ages ranged from 17 to 83 years. Donor cohort demographic information and HLA types for each donor are provided in Supplementary Figure S1. To measure the naïve T-cell response to salmon calcitonin and impurity peptides, cells were plated at a density of 2.5 × 10^5 cells per well in 96-well U-bottom cell plates in RPMI 1640 cell culture medium supplemented with IL-2 (10 ng/mL) and IL-7 (20 ng/mL) (Gibco). The cells were incubated with […]®, or a synthetic salmon calcitonin peptide, or individual peptide impurities, at a concentration of 20 μg/mL for 14 days at 37°C/5% CO2, with medium exchanges that include cytokine support (IL-2 and IL-7) on days 4, 7, and 11. A concentration of 20 μg/mL (5.8 μM) was the dose selected for the SCT API and the four selected impurities, following a dose-ranging study performed with […]® to determine the maximum dose at which a T-cell response could be observed with no observed toxicity to the cells. The dose-ranging study was performed following the same protocol as described above. The following control antigens were used in the T-cell assays for each of the PBMC samples: positive controls, keyhole limpet hemocyanin (KLH; Thermo Fisher), and the antigenic peptide pool CEFT (ImmunoSpot). In addition, human serum albumin (HSA; Sigma-Aldrich) was used as a negative control antigen, and phytohemagglutinin (PHA; Thermo Fisher), a T-cell mitogen, was used to confirm T-cell functionality. […] Responses were considered positive if (1) the number of spots was at least twice the background (stimulation index [SI] ≥ 2); (2) there were greater than 50 spot-forming cells (SFCs) per 1.0 × 10^6 PBMCs; and (3) responses were statistically different from the media (Student's t-test). Each of the test articles (SCT API, RLD, or impurity peptide) and each of the positive and negative controls were evaluated in nine replicate wells containing donor PBMCs. Following the 14-day incubation, cells in the nine replicate wells were collected, pooled by the treatment condition, and re-plated in triplicate on a precoated anti-human IFNγ FluoroSpot plate (Mabtech) at a concentration of 1.0 × 10^5 cells per well in the presence of an appropriate test article or control reagent in supplemented RPMI 1640 culture medium. The FluoroSpot plates were incubated for 48 h at 37°C/5% CO2. After 48 h, FluoroSpot plates were developed according to the manufacturer's directions. Spots were counted on an iSpot Spectrum FluoroSpot reading system (AID, Strassberg, Germany) using software 7.0, build 14790. Fluorophore-specific spot parameters were defined using the spot size, spot intensity, and spot gradient. A spot separation algorithm was applied for optimal spot detection. Analysis and counting of spots were performed by unbiased experts at ZellNet Consulting, Inc. (Fort Lee, NJ).

CSNLSTCVLGKLSQELH (Ac-K) LQTYPRTNTGSGTP (disulfide) [06-LYS-AC18_SCT_18X, full-length SCT impurity, acetylation of lysine 18]
Percentage of Responding Donors: 56%
Responding Donors: 9

CSNLSTCVLGKLSQELHKLETYPRTNTGSGTP (disulfide) (disulfide 1-7 (inferred)) [07_Q20E_SCT, full-length SCT impurity, glutamine 20 deamidated to glutamic acid]
Percentage of Responding Donors: 56%
Responding Donors: 9

CSNLSTCVLGKLSQELHKLQTYPRTNTGGSGTP (disulfide 1-7 (inferred)) [12_ENDO-GLY28_SCT, full-length SCT impurity, insertion of glycine at position 28]
Percentage of Responding Donors: 63%
Responding Donors: 10

CSNLSTCVLGKLSQELHKLQTYPRTNTGSGTTP (disulfide 1-7 (inferred)) [17_ENDO-THR31_SCT, full-length SCT impurity, insertion of threonine at position 31]
Percentage of Responding Donors: 69%
Responding Donors: 11
